Experiments:
[1] = test system: proMMP-9 production by human TNFα stimulated THP-1 cell; assay: Action on proMMP-9 production by human TNFα stimulated THP-1 cell (ELISA of culture supernatant); format: cell-based; conditions: THP-1 cells, human TNFα 10 ng/mL, 24 hr; IC50 from 3 concentrations (5, 50, 500 or 1, 10, 100 nmol/L); read-out: proMMP-9 suppression rate IC50
Method: Experimental Example 1: Action of Human TNFα Stimulated THP-1 Cell on proMMP-9 Production
(§1) THP-1 cell (human monocytic leukemia cell line) was adjusted to 1×10^7 cells/mL in a culture medium (10% fetal bovine serum/RPMI1640 medium), and dispensed to a 96 well multiplate. This was equilibrated under the conditions of 37° C./5% CO2, and a culture medium containing human TNFα (final concentration 10 ng/mL) and a test compound was dissolved therein. After incubation under the conditions of 37° C./5% CO2 for 24 hr, the culture medium was centrifuged and the culture supernatant was collected, which was subjected to the following measurement.
Quantification of proMMP-9 in Culture Supernatant
The proMMP-9 concentration of the collected culture supernatant was quantified using a commercially available measurement reagent (manufactured by GE Healthcare, MMP-9, Human, Biotrak ELISA System).
Calculation of proMMP-9 Suppression Rate
The proMMP-9 suppression rate of the test compound was calculated from the following formula: % suppression=100−((Test−Min)/(Max−Min)×100) wherein Max is proMMP-9 concentration of culture supernatant induced by stimulation with human TNFα, without addition of a test compound (added with solvent alone) Min is proMMP-9 concentration of culture supernatant without addition of a test compound (added with solvent alone) and without stimulation with human TNFα, and Test is proMMP-9 concentration of culture supernatant induced by stimulation with human TNFα when a test compound is added.
Furthermore, the concentration of the test compound necessary for suppressing proMMP-9 production by human TNFα stimulated THP-1 cell by 50% (IC50 value) was calculated from 3 points of proMMP-9 suppression rate at test compound concentrations of 5, 50 and 500 nmol/L or 1, 10 and 100 nmol/L.
MMP-9 is produced as a precursor proMMP-9 by the stimulated cells, extracellularly activated and expresses the physiological activity as MMP-9. That is, evaluation of the suppression of proMMP-9 produced by the cell means evaluation of the suppression of production of MMP-9. The same applies to MMP-2, and evaluation of the suppression of proMMP-2 produced by the cell means evaluation of the suppression of production of MMP-2.

[2] = test system: rat monoiodoacetic acid-induced osteoarthritis model; assay: Suppressive action on joints injury marker COMP in rat monoiodoacetic acid-induced osteoarthritis model; format: in vivo
Method: Experimental Example 3 Suppressive Action on Articular Joints Injury Marker Free of Rat Monoiodoacetic Acid-Induced Osteoarthritis Model
Monoiodoacetic acid solution (0.3 mg/25 μL) was injected into the right hindpaw knee joint cavity of anesthetized rats (LEW, male, 7-week-old). […] On day 5, cold phosphate buffer (20 μL) was injected into the right hindpaw knee joint cavity of the euthanized rats, and the joint cavity washing was collected. The joints injury marker COMP (Cartilage Oligomeric Matrix Protein) concentration of the joint cavity washing was quantified using a commercially available measurement reagent (Animal COMP ELISA Kit manufactured by Anamer Medical).
Calculation of Joints Injury Marker COMP Suppression Rate
The COMP suppression rate of the test compound was calculated from the following formula: % suppression=100−((Test−Min)/(Max−Min)×100) wherein Max is a COMP concentration of the joint cavity washing of the pathology group administered with a monoiodoacetic acid solution (oral administration of solvent alone), Min is a COMP concentration of the joint cavity washing of the non-treatment normal group (oral administration of solvent alone), and Test is a COMP concentration of the joint cavity washing of the test compound administration group.

[3] = test system: mouse dextran sulfuric acid induced colitis model; assay: Suppressive action on enteritis score (Disease Activity Index, DAI) of mouse dextran sulfuric acid induced colitis model; format: in vivo; conditions: mouse (C57BL/6J), oral, 30 mg/kg twice per day until day 10; AUC of DAI on days 3, 5, 7 and 10; pathology group 11.75 ± 1.18
Method: Experimental Example 4 Suppressive Action on Enteritis Score (Disease Activity Index, DAI) of Mouse Dextran Sulfuric Acid Induced Colitis Model
Mice (C57BL/6J, male, 6-week-old) were allowed to freely ingest 2.0% (w/v) dextran sulfuric acid solution for 5 days, the solution was exchanged with water, and pathology was evaluated on day 10. The test compound was orally administered twice per day at a dose of 30 mg/kg for 5 days of dextran sulfuric acid solution ingestion and thereafter until day 10. On days 3, 5, 7 and 10 from the start of the test, the body weight decrease, stool consistency, and the state of occult blood or gross bleeding were respectively scored in 0-4 points, and the mean of the total score was taken as Disease Activity Index (DAI), an index of enteritis pathology. The diagnostic criteria of the stool consistency score and occult blood or gross bleeding score were as follows.
The evaluation results are shown by the area under the curve (AUC) calculated using DAI on days 3, 5, 7 and 10.

[4] = test system: proMMP-2 production by THP-1 cell; assay: Action on hemostatic type proMMP-2 production by THP-1 cell (ELISA of culture supernatant); format: cell-based; conditions: Homo sapiens; THP-1 cells, no stimulation, 24 hr; IC50 from 0.1, 1 and 10 μmol/L; read-out: IC50 value (μmol/L), proMMP-2 production suppression
Method: Experimental Example 2: Action of THP-1 Cell on Hemostatic Type proMMP-2 Production
as §1, with “dissolving” for “containing human TNFα (final concentration 10 ng/mL) and”, “added thereto.” for “dissolved therein.”
Quantification of proMMP-2 in Culture Supernatant
The proMMP-2 concentration of the collected culture supernatant was quantified using a commercially available measurement reagent (manufactured by GE Healthcare, MMP-2, Human, Biotrak ELISA System).
Calculation of proMMP-2 Suppression Rate
The proMMP-2 suppression rate of the test compound was calculated from the following formula: % suppress=100−((Test/Cont)×100). wherein Cont is proMMP-2 concentration of culture supernatant without addition of a test compound (added with solvent alone) and Test is proMMP-2 concentration of culture supernatant with addition of a test compound. […]

IC50 [1]: 27 nM | IC50 [4]: > 10 µmol/L
Structure (SMILES): Cc1cnc(N2CCN(C(=O)c3ccc([C@@]4(C)NC(=O)NC4=O)cc3)CC2)c(C)c1 [Example 1, (R)-5-{4-[4-(3,5-dimethylpyridin-2-yl)piperazine-1-carbonyl]phenyl}-5-methylimidazolidine-2,4-dione]
Joints injury marker COMP suppression rate (%) ([2]; rat (LEW), oral, 1 mg/kg once per day, joint cavity washing on day 5): 80.9% | superiority in joints injury marker COMP suppression rate compared with Example 450 described in patent document 3 ([2]; rat monoiodoacetic acid model, both at 1 mg/kg once per day): at least 5 fold | DAI (AUC) [3]: 9.78 ± 0.80
